Measured values taken from patent publication US4014883A, “Indoloquinolines, intermediates and processes” (Hoffmann-La Roche Inc., priority 1975, dated 1977).

Legend:
Sarcoma 180 (S-180) = assay: inhibition of growth of transplantable Sarcoma 180 (S-180) tumors, C/T ratio; format: in vivo; conditions: S-180 in mice, once daily for 8 days, ratio greater than 2 = active
acute LD50 in mice = conditions: mouse, in vivo

CN(C)CCn1c(=O)c2[nH]c3ccc(Cl)cc3c2c2ccccc21 [10-chloro-5-(2-dimethylaminoethyl)-7H-indolo[2,3-c]quinolin-6(5H)-one]
C/T ratio (average tumor weight of untreated controls / treated) (Sarcoma 180 (S-180); 100 mg/kg i.p.): 3.50
C/T ratio (average tumor weight of untreated controls / treated) (Sarcoma 180 (S-180); 100 mg/kg orally): 3.05
LD50 (acute LD50 in mice; ip): > 2000 mg/kg
LD50 (acute LD50 in mice; po): > 4000 mg/kg
